Test results as given in patent US10016378B2, “Compositions and methods for inhibiting intimal hyperplasia” (priority 2014, dated 2018).
“Also recorded” adds a separate entry of the source.

How the values were obtained:
[1] = system: balloon-injured rat aortas; assay: Balloon injury (abdominal aortic denudation) of Lewis rat aortas; format: in vivo, Lewis rats
Method: For example, abdominal aortic denudation in Lewis rats was performed to induce neointimal proliferation. […] The development of intimal hyperplasia was analyzed by histopathology. Confocal immunofluorescence microscopy and 3-dimensional reconstruction was performed to identify cell proliferation (Ki67) and apoptosis (TUNEL).

[2] = Side-effects in the various in vivo models
[3] = system: human vascular SMCs; assay: Cultured human vascular SMCs, PDGF stimulation / staurosporine apoptosis induction; format: cell-based; conditions: VDAC closure/inhibition
Text: Proliferation and apoptosis leveled off after twenty eight (28) days when there was also no further progression of myointimal disease (FIGS. 1c, 1e). […] Human vascular SMCs were isolated from fresh hMA and characterized (Extended Data FIGS. 4e-4f). PDGF was then shown to induce ΔΨm hyperpolarization in cultured SMCs (Extended Data FIG. 4g), similar to the ΔΨm hyperpolarization previous observed in injured hMAs (FIG. 1f). Thus, mitochondrial ΔΨm hyperpolarization in myointimal SMCs and cultured SMCs coincided with the availability of PDGF.

O=C(O)C(Cl)Cl [DCA, dichloroacetate]
luminal obliteration (intimal hyperplasia) ([1]; DCA treatment for 28 days via drinking water (0.75 g/L), p=0.006 vs. untreated 28-day control (24.2±3.5%)): 7.9±6.3% | luminal obliteration (neointimal formation) ([1]; delayed DCA treatment starting on day 14, p=0.001 vs. untreated 28-day control): 3.5±2.9% | vessel re-endothelialization ([1]; in vivo, after mechanical endothelial denudation): does not impair; also recorded: did not prevent vessel re-endothelialization; also recorded: nor inhibited vessel re-endothelialization | side-effects or off-target effects [2]: didn't show any side-effects or off-target effects

O=S(=O)(O)c1cc(N=C=S)ccc1C=Cc1ccc(N=C=S)cc1S(=O)(=O)O [DIDS]
SMC ΔΨm [3]: caused ΔΨm hyperpolarization; also recorded: increased | apoptosis ([3]; staurosporine-induced): rendered SMCs resistant; also recorded: reduced

Cc1ccc(NC(=O)c2ccc(CN3CCN(C)CC3)cc2)cc1Nc1nccc(-c2cccnc2)n1 [imatinib]
myointimal lesions ([1]; compared to untreated control 28 vessels): only minor lesions
